According to publication PMC11990924, “Inhibition of Tyrosinase and Melanogenesis by Carboxylic Acids: Mechanistic Insights and Safety Evaluation” (Molecules, 2025):
In brackets after ≈: the same amount, converted by molar mass. Read-outs that look alike come from different tables or passages of the source.

Columns and labels:
[1] = target: tyrosinase from BioVision, Inc. (claimed to be of human origin); set-up: method as in PMID 38909081; details: cited from earlier work
[2] = cited from earlier work
[3] = target: mushroom tyrosinase (Agaricus bisporus, UniProt C7FF04); assay: Inhibition of mushroom tyrosinase activity (L-DOPA, OD475); assay type: biochemical; details: read-out: tyrosinase inhibition rate
Sequence of mushroom tyrosinase (C7FF04 2-392): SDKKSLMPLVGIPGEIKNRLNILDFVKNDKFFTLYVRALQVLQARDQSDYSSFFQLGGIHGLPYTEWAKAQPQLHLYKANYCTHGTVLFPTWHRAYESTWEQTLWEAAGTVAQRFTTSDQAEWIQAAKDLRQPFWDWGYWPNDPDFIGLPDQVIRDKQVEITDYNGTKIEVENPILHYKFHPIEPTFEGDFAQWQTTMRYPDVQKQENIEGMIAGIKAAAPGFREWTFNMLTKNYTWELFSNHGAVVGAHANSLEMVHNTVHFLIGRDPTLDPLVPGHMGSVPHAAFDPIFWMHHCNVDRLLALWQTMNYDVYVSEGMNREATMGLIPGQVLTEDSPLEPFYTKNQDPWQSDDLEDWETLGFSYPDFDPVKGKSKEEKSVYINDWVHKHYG
Method: L-DOPA solution (5 mM) and tyrosinase (400 U/mL) (Sigma-Aldrich, St. Louis, MO, USA) were prepared in PBS buffer (pH 7.4) (Qingdao Hope Bio-Technology Co., Ltd., Qingdao, China). A reaction mixture was prepared by combining 240 μL of carboxylic acid at various concentrations, 360 μL of L-DOPA solution, and 120 μL of tyrosinase. […] Deionized water was used as the control.

[4] = target: T1, tyrosinase (Agaricus bisporus, UniProt C7FF04); assay: Fluorescence spectra analysis of tyrosinase; assay type: binding, mushroom; details: 6 mM; excitation 280 nm
T1 construct: purchased Sigma-Aldrich
T1 sequence (C7FF04 1-392 limits assumed): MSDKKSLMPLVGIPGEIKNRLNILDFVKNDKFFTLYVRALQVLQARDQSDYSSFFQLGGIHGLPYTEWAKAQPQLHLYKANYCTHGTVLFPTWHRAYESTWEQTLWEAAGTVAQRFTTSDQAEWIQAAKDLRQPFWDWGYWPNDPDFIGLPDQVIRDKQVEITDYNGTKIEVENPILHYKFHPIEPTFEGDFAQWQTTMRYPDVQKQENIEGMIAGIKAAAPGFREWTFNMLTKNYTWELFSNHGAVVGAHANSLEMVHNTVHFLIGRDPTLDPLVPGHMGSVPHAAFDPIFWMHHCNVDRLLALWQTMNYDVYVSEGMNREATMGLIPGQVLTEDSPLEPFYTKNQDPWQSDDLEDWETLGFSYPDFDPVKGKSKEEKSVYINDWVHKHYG
Method: Carboxylic acid solutions at various concentrations were mixed with PBS buffer and tyrosinase (final concentration of 60 U/mL) and then transferred to a black 96-well plate. Fluorescence analysis was conducted using a microplate reader (Infinite 200Pro, Tecan).

[5] = target: T1, tyrosinase; assay: Kinetic analysis of tyrosinase (Lineweaver–Burk); assay type: biochemical, mushroom; details: for inhibition mechanism: Lineweaver–Burk double-reciprocal plots
Method: L-DOPA solutions at various concentrations (0.5, 1, 2, and 4 mM) were prepared in PBS buffer (pH 7.4) and mixed with carboxylic acids at different concentrations and tyrosinase (final concentration of 60 U/mL). […] The reaction rates were calculated based on the OD values. To analyze the inhibition types of the four carboxylic acids on tyrosinase, double-reciprocal Lineweaver–Burk plots were constructed with 1/v (reaction rate) as the y-axis and 1/[S] (substrate concentration) as the x-axis. The maximum reaction velocity (Vmax) and Michaelis constant (Km) were determined using GraphPad Prism 10 (GraphPad Software, Massachusetts, USA).

[6] = pH of carboxylic acid mixed with PBS buffer, without tyrosinase; assay type: physicochemical; details: in PBS buffer, absence of tyrosinase
[7] = L-DOPA auto-oxidation analysis; details: for L-DOPA auto-oxidation inhibition rate: 1.5 mM; for IC50: 37 °C, 12 h, calculated using SPSS, read-out: IC50 for L-DOPA auto-oxidation inhibition
Method: A 5 mM L-DOPA solution was prepared in PBS buffer (pH 7.4). Subsequently, 240 μL of carboxylic acid solution, 360 μL of L-DOPA solution, and 120 μL of PBS buffer were sequentially mixed. The mixture was then incubated at 37 °C for 12 h. […] Deionized water was used as the control. The inhibition of L-DOPA auto-oxidation was calculated using the same method as the melanin content analysis.

[8] = Cell viability of B16-F10 by MTT; assay type: cell-based; details: mouse, B16-F10 cells
Method: B16-F10 cells were seeded in 96-well plates at a density of 1 × 10^5 cells/mL and cultured at 37 °C with 5% CO2 for 24 h. Subsequently, various concentrations of carboxylic acids were added, and the cells were further incubated for 24 h. Then, 6 μL of MTT (5 mg/mL) was added, and the cells were cultured for an additional 4 h. Afterward, 200 μL of DMSO was added to dissolve the formazan crystals by gently pipetting up and down. The absorbance at 570 nm (OD570) was measured using a microplate reader (Infinite 200Pro, Tecan), with deionized water serving as the control. The cell viability was calculated with Equation (2): (2) [(OD570 of sample)/OD570 of control]×100%

[9] = tested on: B16-F10 cells; assay: Melanin content analysis of B16-F10 cells (α-MSH stimulated); assay type: cell-based; details: Mus musculus, B16-F10, α-MSH 1 μM, 48 h, read-out: melanin inhibition rate; for inhibition at 6000 µM: 6 mM
Method: A 900 μL cell suspension with an approximate density of 50% confluence was seeded into a 12-well plate and cultured for 24 h at 37 °C with 5% CO2. Subsequently, various concentrations of carboxylic acids were added, and the cells were further incubated for 1 h. Then, 1 μL of 1 mM α-melanocyte-stimulating hormone (α-MSH) solution was added to achieve a final concentration of 1 μM, and the cells were cultured for an additional 48 h at 37 °C with 5% CO2 to stimulate melanogenesis. Afterward, the cells were digested with trypsin, collected by centrifugation at 10,000 rpm for 5 min (Andreas Hettich GmbH & Co., KG, Tuttlingen, Germany), and the supernatant was discarded. Each tube was treated with 200 μL of 1 M NaOH solution and incubated in a water bath at 60 °C for 20 min. Following incubation, the samples were vortexed to ensure homogeneity, and 200 μL of each sample was transferred to a 96-well plate. The absorbance at 405 nm (OD405) was measured using a microplate reader (Infinite 200Pro, Tecan), and the data were recorded to calculate the melanin content, with deionized water serving as the control. The reduction in melanin content was calculated with Equation (3):(3) [(OD405 of control−OD405 of sample)/OD405 of control]×100%

[10] = tested on: rats; details: cited from earlier work
[11] = tested on: guinea pigs; details: cited from earlier work
[12] = tested on: tyrosinase and Tyrp 1/2; details: Western blot; 300 and 500 μg/mL, 48 h intervals during 5 d culture; cited from earlier work

Row | SMILES | IC50 DOPA auto-oxidation inhibition [2] | decrease of tyrosinase fluorescence intensity [4] | inhibition mechanism [5] | pH ([6]; 6 mM) | L-DOPA auto-oxidation inhibition rate [7] | IC50 [7] | viability at 24 h, 6 mM [8] | inhibition at 6000 µM [9] | further results
1 | O=c1cc(CO)occ1O [kojic acid, reference compound] | 418.5 µg/mL (≈ 2.94 mM) | – | – | – | – | – | – | – | IC50 [1]: 9.27 µM
2 | CC(O)C(=O)O (centres unmarked) [lactic acid] | – | 45.0% | mixed-type inhibition | around 6 | exceeding 80% | 570 µM | > 90% | 14.1% | inhibition at 6000 µM [3]: 47%; inhibition at 12000 µM [3]: 89%; Ki ([5]; GraphPad Prism, mixed-model or competitive model, read-out: inhibition constant (Ki)): 2710 µM; inhibition constant (KIS) for enzyme–substrate complex ([5]; mixed-type inhibitors): 17.032 mM; pH ([6]; 12 mM): 3.6; viability at 24 h, 12 mM ([8]; 12 mM): 97%; inhibition at 12000 µM ([9]; 12 mM): 29.4%; oral LD50 [10]: 3730 mg/kg; oral LD50 [11]: 1810 mg/kg; regulatory effect on melanogenesis-related proteins (tyrosinase and Tyrp 1/2) [12]: no significant regulatory effects
3 | O=C1O[C@H]([C@@H](O)CO)C(O)=C1O [ascorbic acid] | 989.6 µg/mL (≈ 5.62 mM) | – | – | – | – | – | – | – | –
4 | O=C(O)[C@@H]1CCC(O)=N1 [L-pyroglutamic acid] | – | 48.6% | competitive inhibition | 3.7 | exceeding 80% | 660 µM | > 90% | 27.8% | inhibition at 6000 µM ([3]; 6 mM): > 80%; Ki [5]: 1950 µM
